Patent US11352361B2, “Compounds useful as RET inhibitors” (Cancer Research Technology Limited, priority 2017, dated 2022)

target: BaF3 cells expressing KIF5B-RET (Homo sapiens, UniProt P07949); assay: BaF3 cell assay, KIF5B-RET (CellTiter-Glo viability); assay type: cell-based; conditions: 48 hours incubation
Sequence (P07949 29-1114 limits assumed, change not shown): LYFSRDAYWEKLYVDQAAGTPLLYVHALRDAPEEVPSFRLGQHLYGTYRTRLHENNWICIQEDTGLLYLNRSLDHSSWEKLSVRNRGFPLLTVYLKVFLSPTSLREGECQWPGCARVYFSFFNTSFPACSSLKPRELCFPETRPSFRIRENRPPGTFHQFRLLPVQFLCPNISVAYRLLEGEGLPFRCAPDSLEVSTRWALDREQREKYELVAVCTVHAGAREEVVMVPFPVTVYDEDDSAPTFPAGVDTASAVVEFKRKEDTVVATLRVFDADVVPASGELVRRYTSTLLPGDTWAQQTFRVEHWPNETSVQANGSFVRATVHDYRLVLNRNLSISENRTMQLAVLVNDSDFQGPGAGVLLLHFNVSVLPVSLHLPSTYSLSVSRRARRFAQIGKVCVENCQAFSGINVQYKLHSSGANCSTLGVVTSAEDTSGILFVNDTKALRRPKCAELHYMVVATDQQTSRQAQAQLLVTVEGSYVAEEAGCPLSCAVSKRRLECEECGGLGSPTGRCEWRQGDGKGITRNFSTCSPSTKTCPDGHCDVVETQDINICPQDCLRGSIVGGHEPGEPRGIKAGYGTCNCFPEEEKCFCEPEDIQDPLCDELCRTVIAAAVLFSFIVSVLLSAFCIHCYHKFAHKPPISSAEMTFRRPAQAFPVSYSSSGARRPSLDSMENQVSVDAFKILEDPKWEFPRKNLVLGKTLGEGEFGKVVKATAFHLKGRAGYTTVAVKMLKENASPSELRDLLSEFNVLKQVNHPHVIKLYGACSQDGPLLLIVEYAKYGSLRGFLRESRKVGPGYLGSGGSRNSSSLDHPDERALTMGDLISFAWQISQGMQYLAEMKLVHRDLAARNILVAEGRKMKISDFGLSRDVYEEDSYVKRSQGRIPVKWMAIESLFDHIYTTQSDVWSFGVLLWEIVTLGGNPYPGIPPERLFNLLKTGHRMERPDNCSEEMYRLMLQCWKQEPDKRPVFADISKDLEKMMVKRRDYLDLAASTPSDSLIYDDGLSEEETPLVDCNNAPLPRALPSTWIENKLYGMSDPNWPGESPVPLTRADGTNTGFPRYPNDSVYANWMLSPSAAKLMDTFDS

SMILES | IC50
CC(C)(C)n1nc(-c2ccc3cc(C(=O)Nc4nccs4)[nH]c3c2)c2c(N)ncnc21 [Example 1, 6-(4-Amino-1-tert-butyl-pyrazolo[3,4-d]pyrimidin-3-yl)-N-thiazol-2-yl-1H-indole-2-carboxamide] | 83.6 nM
Cc1csc(NC(=O)c2cc3ccc(-c4nn(C(C)(C)C)c5ncnc(N)c45)cc3[nH]2)n1 [Example 26, 6-(4-Amino-1-tert-butyl-pyrazolo[3,4-d]pyrimidin-3-yl)-N-(4-methylthiazol-2-yl)-1H-indole-2-carboxamide] | 912 nM
CNC(=O)c1cc2ccc(-c3nn(C4CC4)c4ncnc(N)c34)cc2[nH]1 [Example 50, 6-(4-Amino-1-cyclopropyl-pyrazolo[3,4-d]pyrimidin-3-yl)-N-methyl-1H-indole-2-carboxamide] | 222 nM

target: RET (Homo sapiens (Human), UniProt P07949); assay: RET enzyme assay (CisBio HTRF kinEASE); assay type: biochemical; conditions: RET/KDR enzyme and cell assays
Sequence (P07949 658-1114): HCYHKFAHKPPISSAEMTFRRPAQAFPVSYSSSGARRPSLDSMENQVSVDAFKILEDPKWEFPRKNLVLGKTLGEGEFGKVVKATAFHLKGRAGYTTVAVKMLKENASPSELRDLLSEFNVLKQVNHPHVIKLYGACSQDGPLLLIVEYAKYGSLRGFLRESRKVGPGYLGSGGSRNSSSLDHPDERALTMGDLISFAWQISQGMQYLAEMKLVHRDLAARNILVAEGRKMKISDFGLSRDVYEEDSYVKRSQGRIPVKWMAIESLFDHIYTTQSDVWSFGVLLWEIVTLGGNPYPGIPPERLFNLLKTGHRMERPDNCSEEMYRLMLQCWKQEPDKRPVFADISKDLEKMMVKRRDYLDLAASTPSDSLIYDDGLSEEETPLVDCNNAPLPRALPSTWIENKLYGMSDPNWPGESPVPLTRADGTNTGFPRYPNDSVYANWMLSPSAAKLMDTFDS

SMILES | desired activity in the assays described in Example 51
CC(C)(C)n1nc(-c2ccc3cc(C(=O)O)[nH]c3c2)c2c(N)ncnc21 [6-(4-amino-1-tert-butyl-pyrazolo[3,4-d]pyrimidin-3-yl)-1H-indole-2-carboxylic acid] | did not exhibit the desired activity
CC(C)(C)n1nc(-c2ccc3cc(C(=O)Nc4nnc(C(F)(F)F)s4)[nH]c3c2)c2c(N)ncnc21 [6-(4-amino-1-tert-butyl-pyrazolo[3,4-d]pyrimidin-3-yl)-N-[5-(trifluoromethyl)-1,3,4-thiadiazol-2-yl]-1H-indole-2-carboxamide] | did not exhibit the desired activity
CNC(=O)c1cc2ccc(-c3n[nH]c4ncnc(N)c34)cc2[nH]1 [6-(4-amino-1H-pyrazolo[3,4-d]pyrimidin-3-yl)-N-methyl-1H-indole-2-carboxamide] | did not exhibit the desired activity
CNC(=O)c1cc2ccc(-c3nn(CCO)c4ncnc(N)c34)cc2[nH]1 [6-[4-amino-1-(2-hydroxyethyl)pyrazolo[3,4-d]pyrimidin-3-yl]-N-methyl-1H-indole-2-carboxamide] | did not exhibit the desired activity
CNC(=O)c1cc2ccc(-c3nn(CC(=O)N(C)C)c4ncnc(N)c34)cc2[nH]1 [6-[4-amino-1-[2-(dimethylamino)-2-oxo-ethyl]pyrazolo[3,4-d]pyrimidin-3-yl]-N-methyl-1H-indole-2-carboxamide] | did not exhibit the desired activity
CNC(=O)c1cc2ccc(-c3nn(CCC(=O)N(C)C)c4ncnc(N)c34)cc2[nH]1 [6-[4-amino-1-[3-(dimethylamino)-3-oxo-propyl]pyrazolo[3,4-d]pyrimidin-3-yl]-N-methyl-1H-indole-2-carboxamide] | did not exhibit the desired activity
CCNC(=O)c1cc2ccc(-c3nn([C@H]4CC[C@@H](O)C4)c4ncnc(NC)c34)cc2[nH]1 [N-ethyl-6-[1-[(1 S,3R)-3-hydroxycyclopentyl]-4-(methylamino)pyrazolo[3,4-d]pyrimidin-3-yl]-1H-indole-2-carboxamide] | did not exhibit the desired activity

target: BaF3 cells expressing KDR (Homo sapiens, UniProt P35968, cells depend on it, form not given); assay: not given; conditions: read-out: KDR Cell IC50; 48 hours incubation
Sequence (P35968 20-1356 limits assumed, change not shown): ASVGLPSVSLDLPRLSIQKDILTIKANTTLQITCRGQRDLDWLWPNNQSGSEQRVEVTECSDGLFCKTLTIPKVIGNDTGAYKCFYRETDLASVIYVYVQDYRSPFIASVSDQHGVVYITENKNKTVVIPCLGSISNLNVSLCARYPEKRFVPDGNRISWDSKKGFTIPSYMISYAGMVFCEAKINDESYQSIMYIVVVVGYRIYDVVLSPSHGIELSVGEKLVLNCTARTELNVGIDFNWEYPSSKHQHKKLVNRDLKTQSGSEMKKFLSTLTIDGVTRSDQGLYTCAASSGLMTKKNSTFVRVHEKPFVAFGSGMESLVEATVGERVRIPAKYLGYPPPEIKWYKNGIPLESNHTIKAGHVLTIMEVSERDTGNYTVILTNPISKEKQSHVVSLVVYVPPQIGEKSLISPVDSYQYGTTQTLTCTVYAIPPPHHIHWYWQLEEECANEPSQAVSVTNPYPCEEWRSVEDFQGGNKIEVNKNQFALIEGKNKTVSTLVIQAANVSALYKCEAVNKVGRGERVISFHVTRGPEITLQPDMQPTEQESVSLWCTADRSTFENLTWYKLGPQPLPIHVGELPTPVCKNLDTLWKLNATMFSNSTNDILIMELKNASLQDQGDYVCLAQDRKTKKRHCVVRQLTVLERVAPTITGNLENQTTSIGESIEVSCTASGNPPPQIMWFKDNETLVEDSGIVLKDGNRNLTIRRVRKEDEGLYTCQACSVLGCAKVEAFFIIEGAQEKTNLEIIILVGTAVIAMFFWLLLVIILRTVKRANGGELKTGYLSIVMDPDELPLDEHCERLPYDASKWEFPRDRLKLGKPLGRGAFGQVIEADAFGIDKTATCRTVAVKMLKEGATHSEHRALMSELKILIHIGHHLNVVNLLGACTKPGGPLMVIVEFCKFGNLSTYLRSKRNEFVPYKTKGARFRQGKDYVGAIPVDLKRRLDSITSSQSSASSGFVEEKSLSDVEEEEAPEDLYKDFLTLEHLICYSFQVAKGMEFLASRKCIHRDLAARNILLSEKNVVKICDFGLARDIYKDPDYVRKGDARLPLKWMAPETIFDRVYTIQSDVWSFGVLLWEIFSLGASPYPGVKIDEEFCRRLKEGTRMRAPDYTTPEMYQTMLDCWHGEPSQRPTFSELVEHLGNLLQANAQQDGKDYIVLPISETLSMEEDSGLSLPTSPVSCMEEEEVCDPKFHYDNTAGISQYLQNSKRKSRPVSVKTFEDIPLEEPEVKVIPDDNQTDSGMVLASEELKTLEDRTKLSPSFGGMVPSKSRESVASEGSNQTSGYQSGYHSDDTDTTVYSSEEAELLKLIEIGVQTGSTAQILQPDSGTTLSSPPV

SMILES | IC50
CC(C)(C)n1nc(-c2ccc3cc(C(=O)NCC(F)(F)F)[nH]c3c2)c2c(N)ncnc21 [Example 11, 6-(4-Amino-1-tert-butyl-pyrazolo[3,4-d]pyrimidin-3-yl)-N-(2,2,2-trifluoroethyl)-1H-indole-2-carboxamide] | 4260 nM
CC(C)n1nc(-c2ccc3cc(C(=O)Nc4nccs4)[nH]c3c2)c2c(N)ncnc21 [Example 37, 6-(4-Amino-1-isopropyl-pyrazolo[3,4-d]pyrimidin-3-yl)-N-thiazol-2-yl-1H-indole-2-carboxamide] | 702 nM

target: KDR (Homo sapiens (Human), UniProt P35968); assay: KDR enzyme assay (CisBio HTRF kinEASE); assay type: biochemical; conditions: ATP at Km, 15 mins pre-incubation
Sequence (P35968 790-1356): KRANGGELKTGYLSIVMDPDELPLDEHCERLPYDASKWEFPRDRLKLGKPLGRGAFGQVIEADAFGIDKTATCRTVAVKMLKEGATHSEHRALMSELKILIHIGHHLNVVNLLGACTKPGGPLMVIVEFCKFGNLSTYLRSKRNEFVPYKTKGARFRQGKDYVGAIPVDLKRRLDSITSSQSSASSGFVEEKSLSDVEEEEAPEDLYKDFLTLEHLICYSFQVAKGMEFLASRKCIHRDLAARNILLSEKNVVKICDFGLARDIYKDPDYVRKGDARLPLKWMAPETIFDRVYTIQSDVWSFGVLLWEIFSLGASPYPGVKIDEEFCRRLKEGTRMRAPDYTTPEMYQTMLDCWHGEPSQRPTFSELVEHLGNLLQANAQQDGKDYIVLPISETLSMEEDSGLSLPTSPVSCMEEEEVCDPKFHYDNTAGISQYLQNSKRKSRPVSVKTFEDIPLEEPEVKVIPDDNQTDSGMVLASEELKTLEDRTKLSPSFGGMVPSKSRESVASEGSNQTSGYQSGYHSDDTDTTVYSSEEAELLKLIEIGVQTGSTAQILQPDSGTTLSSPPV

SMILES | IC50
CC(C)(C)n1nc(-c2ccc3cc(C(=O)NCC(F)(F)F)[nH]c3c2)c2c(N)ncnc21 [Example 11, 6-(4-Amino-1-tert-butyl-pyrazolo[3,4-d]pyrimidin-3-yl)-N-(2,2,2-trifluoroethyl)-1H-indole-2-carboxamide] | 150000 nM
